# According to patent publication US20220324865A1 (Bayer Aktiengesellschaft, priority 2018, published 2022):
# pIC50: −log10 of the molar value.
# Target: T1, human EP3 receptor (Homo sapiens, UniProt P43115)
# T1 construct: expressed in transfected cells; host or cells: CHO K1 (Chinese Hamster Ovary), stably co-transfected with Galpha16 and mitochondrial clytin
# T1 sequence (P43115 1-390): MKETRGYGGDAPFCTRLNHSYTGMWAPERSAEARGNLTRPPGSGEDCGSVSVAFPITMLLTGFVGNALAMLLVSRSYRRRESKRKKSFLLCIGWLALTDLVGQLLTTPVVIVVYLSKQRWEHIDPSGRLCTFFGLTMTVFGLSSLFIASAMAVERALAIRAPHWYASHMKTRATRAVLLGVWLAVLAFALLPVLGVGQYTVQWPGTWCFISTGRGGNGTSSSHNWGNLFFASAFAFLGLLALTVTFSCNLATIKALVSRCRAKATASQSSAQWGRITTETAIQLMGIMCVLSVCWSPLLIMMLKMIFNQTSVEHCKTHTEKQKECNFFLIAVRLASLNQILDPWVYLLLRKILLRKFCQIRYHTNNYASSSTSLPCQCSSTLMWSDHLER
# Test: Cellular in vitro assay for determining EP3 receptor activity (human EP3 cell line, sulprostone-stimulated calcium luminescence)
# Type: cell-based
# Settings: CHO cells expressing human EP3 and mitochondrial Clytin; antagonist mode, sulprostone at EC50; read-out: EP3 CHO mtCLY ANTAG IC50
# Method in brief: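 Antagonist activity was measured as inhibition of the luminescent calcium signal elicited by EC50 sulprostone, following 10 min compound pretreatment. The cell line was recombinant CHO K1 co-expressing human EP3, Gα16 and the photoprotein Clytin, reconstituted with coelenterazine.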
row,Structure (SMILES),pIC50
1,O=C(NC(CO)c1ccc(F)cc1)c1cc2c(=O)[nH]c(-c3ccc4cccc(F)c4c3)cn2n1 (centres unmarked) [6-37],8.88
2,"Cc1ccc(-c2cn3nc(C(=O)NC4(c5ccc(F)cc5)CN(C)C4)c(C)c3c(=O)[nH]2)cc1Cl [Example 1-150, 6-(3-Chloro-4-methylphenyl)-N-[3-(4-fluorophenyl)-1-methylazetidin-3-yl]-3-methyl-4-oxo-4,5-dihydropyrazolo[1,5-a]pyrazine-2-carboxamide]",8.14
3,"Cc1cccc2ncc(-c3cn4nc(C(=O)N[C@H]5CC[C@H](O)CC5)c(C(C)C)c4c(=O)[nH]3)cc12 [Example 4-32, N-(trans-4-Hydroxycyclohexyl)-3-isopropyl-6-(5-methylquinolin-3-yl)-4-oxo-4,5-dihydropyrazolo[1,5-a]pyrazine-2-carboxamide]",8.19
4,Cc1cc(-c2cn3nc(C(=O)NC4(c5ccc(F)cc5)CN(CC(F)(F)F)C4)c(C(F)(F)F)c3c(=O)[nH]2)ccc1Cl [6-237],8.72
5,Cc1cc(-c2cn3nc(C(=O)NC4(c5ccc(F)cc5)CN(C)C4)c(C4CC4)c3c(=O)[nH]2)ccc1Cl [6-333],8.40
6,"C[C@@H](NC(=O)c1cc2c(=O)[nH]c(-c3ccc4c(c3)CCCC4)cn2n1)c1ccc(F)cc1 [Example 1-101, N-[(1R)-1-(4-Fluorophenyl)ethyl]-4-oxo-6-(5,6,7,8-tetrahydronaphthalen-2-yl)-4,5-dihydropyrazolo[1,5-a]pyrazine-2-carboxamide]",8.77
7,"COc1ccc([C@@H](C)NC(=O)c2cc3c(=O)[nH]c(-c4ccc5c(c4F)OCCO5)c(F)n3n2)cn1 [Example 1-111, 7-Fluoro-6-(5-fluoro-2,3-dihydro-1,4-benzodioxin-6-yl)-N-[(1R)-1-(6-methoxypyridin-3-yl)ethyl]-4-oxo-4,5-dihydropyrazolo[1,5-a]pyrazine-2-carboxamide]",8.06
8,"O=C(N[C@H](CCO)c1ccc(F)cc1)c1nn2cc(-c3ccc4ccccc4c3)[nH]c(=O)c2c1Cl [Example 1-120, 3-Chloro-N-[(1R)-1-(4-fluorophenyl)-3-hydroxypropyl]-6-(naphthalen-2-yl)-4-oxo-4,5-dihydropyrazolo[1,5-a]pyrazine-2-carboxamide]",9.31
9,O=C(N[C@@H](c1ccc(F)cc1)C(F)(F)CO)c1nn2cc(-c3ccc(Cl)cc3)[nH]c(=O)c2c1C1CC1 [6-675],8.82
10,COc1ccc(-c2cn3nc(C(=O)N[C@@H](c4ccc(F)cc4)C(C)(C)O)c(C4CC4)c3c(=O)[nH]2)cc1F [6-587],9.08
11,"CN1CCC(NC(=O)c2nn3cc(-c4ccc5ccccc5c4)[nH]c(=O)c3c2C(F)(F)F)(c2ccc(F)cc2)CC1 [Example 1-116, N-[4-(4-Fluorophenyl)-1-methylpiperidin-4-yl]-6-(naphthalen-2-yl)-4-oxo-3-(trifluoromethyl)-4,5-dihydropyrazolo[1,5-a]pyrazine-2-carboxamide]",8.02
12,COC[C@H](NC(=O)c1cc2c(=O)[nH]c(-c3ccc(C)c(C)c3)cn2n1)c1ccccc1 [6-50],8.89
13,Cc1ccc(-c2cn3nc(C(=O)NC(C)C4CCC4)c(C(F)(F)F)c3c(=O)[nH]2)cc1Cl (racemic) [6-193],8.39
14,Cc1ccc(-c2cn3nc(C(=O)NC4(c5ccc(F)cc5)CCN(C)C4)cc3c(=O)[nH]2)cc1C (racemic) [6-362],7.57
15,"Cc1c(C(=O)NC(C)CC2CC2)nn2c(C)c(-c3ccc4ccccc4c3)[nH]c(=O)c12 (centres unmarked) [Example 3-10, N-(1-Cyclopropylpropan-2-yl)-3,7-dimethyl-6-(2-naphthyl)-4-oxo-4,5-dihydropyrazolo[1,5-a]pyrazine-2-carboxamide]",8.56
16,"Cc1c(C(=O)NC(C)c2ccccn2)nn2c(C)c(-c3ccc4ccccc4c3)[nH]c(=O)c12 (centres unmarked) [Example 3-17, 3,7-Dimethyl-6-(2-naphthyl)-4-oxo-N-[1-(2-pyridyl)ethyl]-5H-pyrazolo[1,5-a]pyrazine-2-carboxamide]",8.74
17,"CC(C)c1c(C(=O)N[C@H](C)c2ccc(F)cc2)nn2cc(-c3ccc4ccccc4c3)[nH]c(=O)c12 [Example 1-8, N-[(1R)-1-(4-Fluorophenyl)ethyl]-6-(naphthalen-2-yl)-4-oxo-3-(propan-2-yl)-4,5-dihydropyrazolo-[1,5-a]pyrazine-2-carboxamide]",8.87
18,"Cc1ccc(-c2cn3nc(C(=O)NCCC(O)C(F)(F)F)c(C4CC4)c3c(=O)[nH]2)cc1F (single isomer, unassigned) [6-367]",9.16
19,Cc1ccc(-c2cn3nc(C(=O)N[C@@H](c4ccc(F)cc4)[C@@H](O)C(F)(F)F)c(C4CC4)c3c(=O)[nH]2)cc1Cl [6-273],8.96
20,"CCN(CCO)CC(NC(=O)c1nn2cc(-c3cnc4cccc(C)c4c3)[nH]c(=O)c2c1C(C)C)c1ccccc1 (centres unmarked) [Example 1-41, N-[2-[Ethyl(2-hydroxyethyl)amino]-1-phenylethyl]-3-isopropyl-6-(5-methyl-3-quinolyl)-4-oxo-5H-pyrazolo[1,5-a]pyrazine-2-carboxamide]",8.43
21,"Cc1c(C(=O)Nc2ccnn2C(C)C)nn2c(C)c(-c3ccc4ccccc4c3)[nH]c(=O)c12 [Example 3-6, 3,7-Dimethyl-6-(naphthalen-2-yl)-4-oxo-N-[1-(propan-2-yl)-1H-pyrazol-5-yl]-4,5-dihydropyrazolo[1,5-a]pyrazine-2-carboxamide]",8.32

row,Structure (SMILES),pIC50
1,CC(C)c1c(C(=O)NC2(c3ccc(F)cc3)CN(C)C2)nn2cc(-c3cccc(Cl)c3)[nH]c(=O)c12 [6-684],8.47
2,Cc1ccc(-c2cn3nc(C(=O)N[C@@H](c4ccc(F)cc4)C(F)(F)CO)c(C(F)(F)C(F)(F)F)c3c(=O)[nH]2)cc1C [6-489],9.39
3,O=C(NC1(c2ccc(F)cc2)CN(CC(F)F)C1)c1nn2cc(-c3ccc(Cl)c(F)c3)[nH]c(=O)c2c1C1CC1 [6-108],8.89
4,"Cc1ccc2c(c1)C(NC(=O)c1nn3cc(-c4cnc5cccc(C)c5c4)[nH]c(=O)c3c1C(C)C)CC(C)(C)O2 (centres unmarked) [Example 4-84, 3-Isopropyl-6-(5-methylquinolin-3-yl)-4-oxo-N-(2,2,6-trimethyl-3,4-dihydro-2H-chromen-4-yl)-4,5-dihydropyrazolo[1,5-a]pyrazine-2-carboxamide]",8.16
5,Cc1ccc(-c2cn3nc(C(=O)N[C@H]4c5ccccc5C[C@H]4O)c(C(F)(F)F)c3c(=O)[nH]2)cc1Cl [6-185],8.63
6,Cc1cccc2ncc(-c3cn4nc(C(=O)N[C@H](C)c5ccc(F)cc5)cc4c(=O)[nH]3)cc12 [6-64],8.60
7,"Cc1cccc2ncc(-c3cn4nc(C(=O)NC5(c6ccc(C#N)cc6)CC5)c(C(C)C)c4c(=O)[nH]3)cc12 [Example 4-3, N-[1-(4-Cyanophenyl)cyclopropyl]-6-(5-methylquinolin-3-yl)-4-oxo-3-(propan-2-yl)-4,5-dihydropyrazolo[1,5-a]pyrazine-2-carboxamide]",8.78
8,Cc1ccc(-c2cn3nc(C(=O)N[C@@H](c4ccc(F)cc4)C(F)(F)CO)c(C4CC4)c3c(=O)[nH]2)cc1Cl [6-256],8.96
9,Cc1ccc(-c2cn3nc(C(=O)NC(CN(C)C)c4ccc(F)cc4)c(C4CC4)c3c(=O)[nH]2)cc1C (racemic) [6-444],8.49
10,Cc1ccc(-c2cn3nc(C(=O)NC(C)c4cnc(OCC(F)(F)F)cn4)cc3c(=O)[nH]2)cc1C (centres unmarked) [6-2],8.41
11,"CN1CCOc2cc(-c3cn4nc(C(=O)N[C@H](CCO)c5ccc(F)cc5)cc4c(=O)[nH]3)ccc21 [Example 1-37, N-[(1R)-1-(4-Fluorophenyl)-3-hydroxopyl]-6-(4-methyl-3,4-dihydro-2H-1,4-benzoxazin-7-yl)-4-oxo-4,5-dihydropyrazolo[1,5-a]pyrazine-2-carboxamide]",9.02
12,"Cc1nn(C)cc1C(C)NC(=O)c1cc2c(=O)[nH]c(-c3ccc4ccccc4c3)cn2n1 (centres unmarked) [Example 2-5, N-[1-(1,3-Dimethyl-1H-pyrazol-4-yl)ethyl]-6-(2-naphthyl)-4-oxo-4,5-dihydropyrazolo[1,5-a]pyrazine-2-carboxamide]",8.40
13,Cc1c(C(=O)NC2(c3ccc(F)cc3)CCN(CC(F)(F)F)CC2)nn2cc(-c3ccc4ccccc4c3)[nH]c(=O)c12 [6-5],8.31
14,"Cc1ccc(-c2cn3nc(C(=O)NCC(O)C(F)(F)F)c(C)c3c(=O)[nH]2)cc1F (single isomer, unassigned) [6-411]",7.49
15,"Cc1cccc2ncc(-c3cn4nc(C(=O)NC(CCO)c5ccccc5Cl)c(C(C)C)c4c(=O)[nH]3)cc12 (centres unmarked) [Example 4-44, N-[1-(2-Chlorophenyl)-3-hydroxypropyl]-3-isopropyl-6-(5-methyl-3-quinolyl)-4-oxo-5H-pyrazolo[1,5-a]pyrazine-2-carboxamide]",8.84
16,Cc1cc(-c2cn3nc(C(=O)NCC(O)(C(F)(F)F)C(F)(F)F)c(C4CC4)c3c(=O)[nH]2)ccc1F [6-658],8.15
17,Cc1ccc(-c2cn3nc(C(=O)NC4CC(F)(F)C4)c(C4CC4)c3c(=O)[nH]2)cc1Cl [6-255],9.02
18,O=C(N[C@H](CCO)c1ccc(F)cc1)c1cc2c(=O)[nH]c(-c3cnc4ccccc4c3)cn2n1 [6-11],8.33
19,COc1cc(-c2cn3nc(C(=O)N[C@H](C)C4CC4)c(C4CC4)c3c(=O)[nH]2)ccc1Cl [6-483],9.00
20,"COc1ccc(C(C)NC(=O)c2nn3c(C)c(-c4ccc5ccccc5c4)[nH]c(=O)c3c2C)cn1 (centres unmarked) [Example 3-38, N-[1-(6-Methoxy-3-pyridyl)ethyl]-3,7-dimethyl-6-(2-naphthyl)-4-oxo-5H-pyrazolo[1,5-a]pyrazine-2-carboxamide]",8.73
